Molecular target: T1, human mAChR M4 (Homo sapiens, UniProt P08173)
T1 construct: expressed in transfected cells; host or cells: CHO-K1 (American Type Culture Collection), stably expressing hM4 and Gqi5
T1 sequence (P08173 1-479): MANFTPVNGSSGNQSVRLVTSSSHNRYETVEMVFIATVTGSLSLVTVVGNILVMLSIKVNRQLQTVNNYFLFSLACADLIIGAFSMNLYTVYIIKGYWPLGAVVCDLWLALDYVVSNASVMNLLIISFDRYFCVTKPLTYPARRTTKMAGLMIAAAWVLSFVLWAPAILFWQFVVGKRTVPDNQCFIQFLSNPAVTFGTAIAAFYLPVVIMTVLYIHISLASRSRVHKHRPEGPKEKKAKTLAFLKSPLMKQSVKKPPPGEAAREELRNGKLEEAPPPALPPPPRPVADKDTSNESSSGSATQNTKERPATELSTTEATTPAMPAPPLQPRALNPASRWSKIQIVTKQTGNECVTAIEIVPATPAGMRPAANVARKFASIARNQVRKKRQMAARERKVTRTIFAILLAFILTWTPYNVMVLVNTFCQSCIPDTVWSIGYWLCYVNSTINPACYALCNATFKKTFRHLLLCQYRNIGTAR
Assay: mAChR M4 cell-based functional assay: calcium mobilization (Fluo-4, FDSS), potentiation of EC20 acetylcholine response in hM4-Gqi5 CHO-K1 cells
Conditions: human M4; for Emax at 30 µM: CHO-K1, % ACh maximum at 30 μM; for EC50: potentiation of EC20 acetylcholine response, calcium mobilization
How it was run: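 CHO-K1 cells stably co-expressing human M4 and chimeric Gqi5, loaded with Fluo-4 AM (50 min, 37 °C). Compounds in 11-point 1:3 series added first; EC20 acetylcholine added at 144 s and again at 230 s. Calcium read on FDSS at 1 Hz; EC50 and Emax from four-parameter logistic fit of potentiated EC20 response.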

Row | SMILES | Emax at 30 µM [%] | EC50 [nM]
1 | COc1ccccc1Nc1cnc2c(c1)CN(c1nn3c(=O)ccnc3cc1C)CC2 [Compound 2-62, 7-(3-((2-methoxyphenyl)amino)-7,8-dihydro-1,6-naphthyridin-6(5H)-yl)-8-methyl-4H-pyrimido[1,2-b]pyridazin-4-one] | 87 | 221
2 | Cc1cc2nccc(=O)n2nc1N1CCc2ncc(Nc3ccc(F)cc3)cc2C1 [Compound 2-63, 7-(3-((4-fluorophenyl)amino)-7,8-dihydro-1,6-naphthyridin-6(5H)-yl)-8-methyl-4H-pyrimido[1,2-b]pyridazin-4-one] | 91 | 79
3 | Cc1cc2nccc(=O)n2nc1N1CCc2ncc(N3CCOC(c4ccc(F)cc4)C3)cc2C1 (stereo not drawn) [Compound 2-64, 7-(3-(2-(4-fluorophenyl)morpholino)-7,8-dihydro-1,6-naphthyridin-6(5H)-yl)-8-methyl-4H-pyrimido[1,2-b]pyridazin-4-one] | 84 | 398
4 | Cc1cc(F)ccc1Nc1cnc2c(c1)CN(c1nn3c(=O)ccnc3cc1C)CC2 [Compound 2-65, 7-(3-((4-fluoro-2-methylphenyl)amino)-7,8-dihydro-1,6-naphthyridin-6(5H)-yl)-8-methyl-4H-pyrimido[1,2-b]pyridazin-4-one] | 90 | 99
5 | Cc1cc2nccc(=O)n2nc1N1CCc2ncc(N3CCOC(c4ccccc4)C3)cc2C1 (stereo not drawn) [Compound 2-66, 8-methyl-7-(3-(2-phenylmorpholino)-7,8-dihydro-1,6-naphthyridin-6(5H)-yl)-4H-pyrimido[1,2-b]pyridazin-4-one] | 79 | 652
6 | Cc1cc2nccc(=O)n2nc1N1CCc2ncc(Nc3ccccc3Cl)cc2C1 [Compound 2-67, 7-(3-((2-chlorophenyl)amino)-7,8-dihydro-1,6-naphthyridin-6(5H)-yl)-8-methyl-4H-pyrimido[1,2-b]pyridazin-4-one] | 95 | 25
7 | Cc1cc2nccc(=O)n2nc1N1CCc2ncc(N3CCOC(C)(C)C3)cc2C1 [Compound 2-68, 7-(3-(2,2-dimethylmorpholino)-7,8-dihydro-1,6-naphthyridin-6(5H)-yl)-8-methyl-4H-pyrimido[1,2-b]pyridazin-4-one] | 96 | 113
8 | Cc1ccc(F)cc1Nc1cnc2c(c1)CN(c1nn3c(=O)ccnc3cc1C)CC2 [Compound 2-69, 7-(3-((5-fluoro-2-methylphenyl)amino)-7,8-dihydro-1,6-naphthyridin-6(5H)-yl)-8-methyl-4H-pyrimido[1,2-b]pyridazin-4-one] | 96 | 20
9 | COc1ccc(F)c(Nc2cnc3c(c2)CN(c2nn4c(=O)ccnc4cc2C)CC3)c1 [Compound 2-70, 7-(3-((2-fluoro-5-methoxyphenyl)amino)-7,8-dihydro-1,6-naphthyridin-6(5/)-yl)-8-methyl-4H-pyrimido[1,2-b]pyridazin-4-one] | 94 | 85
10 | Cc1cc2nccc(=O)n2nc1N1CCc2ncc(Nc3cccc(OC(F)F)c3)cc2C1 [Compound 2-71, 7-(3-((3-(difluoromethoxy)phenyl)amino)-7,8-dihydro-1,6-naphthyridin-6(5H)-yl)-8-methyl-4H-pyrimido[1,2-b]pyridazin-4-one] | 97 | 82
11 | Cc1cc2nccc(=O)n2nc1N1CCc2ncc(Nc3cccc4c3OCCO4)cc2C1 [Compound 2-72, 7-(3-((2,3-dihydrobenzo[b][1,4]dioxin-5-yl)amino)-7,8-dihydro-1,6-naphthyridin-6(5H)-yl)-8-methyl-4H-pyrimido[1,2-b]pyridazin-4-one] | 69 | 549
12 | COc1cc(F)ccc1Nc1cnc2c(c1)CN(c1nn3c(=O)ccnc3cc1C)CC2 [Compound 2-74, 7-(3-((4-fluoro-2-methoxyphenyl)amino)-7,8-dihydro-1,6-naphthyridin-6(5H)-yl)-8-methyl-4H-pyrimido[1,2-b]pyridazin-4-one] | 62 | 398
13 | Cc1ccccc1Nc1cnc2c(c1)CN(c1nn3c(=O)ccnc3cc1C)CC2 [Compound 2-75, 8-methyl-7-(3-(o-tolylamino)-7,8-dihydro-1,6-naphthyridin-6(5H)-yl)-4H-pyrimido[1,2-b]pyridazin-4-one] | 93 | 17
14 | Cc1cc2nccc(=O)n2nc1N1CCc2ncc(N3CCOC(c4ccccn4)C3)cc2C1 (stereo not drawn) [Compound 2-76, 8-methyl-7-(3-(2-(pyridin-2-yl)morpholino)-7,8-dihydro-1,6-naphthyridin-6(5H)-yl)-4H-pyrimido[1,2-b]pyridazin-4-one] | 76 | 5340
15 | Cc1cc2nccc(=O)n2nc1N1CCc2ncc(N3CCOC(c4cccnc4)C3)cc2C1 (stereo not drawn) [Compound 2-77, 8-methyl-7-(3-(2-(pyridin-3-yl)morpholino)-7,8-dihydro-1,6-naphthyridin-6(5H)-yl)-4H-pyrimido[1,2-b]pyridazin-4-one] | 80 | 1270
16 | Cc1cc2nccc(=O)n2nc1N1CCc2ncc(Nc3cccnc3F)cc2C1 [Compound 2-78, 7-(3-((2-fluoropyridin-3-yl)amino)-7,8-dihydro-1,6-naphthyridin-6(5H)-yl)-8-methyl-4H-pyrimido[1,2-b]pyridazin-4-one] | 103 | 102
17 | Cc1cc2nccc(=O)n2nc1N1CCc2ncc(Nc3cccc(F)c3)cc2C1 [Compound 2-79, 7-(3-((3-fluorophenyl)amino)-7,8-dihydro-1,6-naphthyridin-6(5H)-yl)-8-methyl-4H-pyrimido[1,2-b]pyridazin-4-one] | 99 | 20
18 | Cc1cc2nccc(=O)n2nc1N1CCc2ncc(Nc3cccc(C#N)c3)cc2C1 [Compound 2-80, 3-((6-(8-methyl-4-oxo-4H-pyrimido[1,2-b]pyridazin-7-yl)-5,6,7,8-tetrahydro-1,6-naphthyridin-3-yl)amino)benzonitrile] | 97 | 47

Second part, the molecule after the results:

Row | Emax at 30 µM [%] | EC50 [nM] | SMILES
19 | 85 | 230 | Cc1cc2nccc(=O)n2nc1N1CCc2ncc(Nc3cc(F)ccc3C#N)cc2C1 [Compound 2-81, 4-fluoro-2-((6-(8-methyl-4-oxo-4H-pyrimido[1,2-b]pyridazin-7-yl)-5,6,7,8-tetrahydro-1,6-naphthyridin-3-yl)amino)benzonitrile]
20 | 79 | 489 | COc1cc(Cl)cc(Nc2cnc3c(c2)CN(c2nn4c(=O)ccnc4cc2C)CC3)c1 [Compound 2-82, 7-(3-((3-chloro-5-methoxyphenyl)amino)-7,8-dihydro-1,6-naphthyridin-6(5H)-yl)-8-methyl-4H-pyrimido[1,2-b]pyridazin-4-one]
21 | 59 | 639 | Cc1nc(-c2cccc(Nc3cnc4c(c3)CN(c3nn5c(=O)ccnc5cc3C)CC4)c2)cs1 [Compound 2-83, 8-methyl-7-(3-((3-(2-methylthiazol-4-yl)phenyl)amino)-7,8-dihydro-1,6-naphthyridin-6(5H)-yl)-4H-pyrimido[1,2-b]pyridazin-4-one]
22 | 64 | 1910 | COc1cccc(C2CN(c3cnc4c(c3)CN(c3nn5c(=O)ccnc5cc3C)CC4)CCO2)c1 (stereo not drawn) [Compound 2-84, 7-(3-(2-(3-methoxyphenyl)morpholino)-7,8-dihydro-1,6-naphthyridin-6(5H)-yl)-8-methyl-4H-pyrimido[1,2-b]pyridazin-4-one]
23 | 95 | 22 | Cc1cc2nccc(=O)n2nc1N1CCc2ncc(N3CCc4ccccc43)cc2C1 [Compound 2-85, 7-(3-(indolin-1-yl)-7,8-dihydro-1,6-naphthyridin-6(5H)-yl)-8-methyl-4H-pyrimido[1,2-b]pyridazin-4-one]
24 | 87 | 1830 | Cc1cc2nccc(=O)n2nc1N1CCc2ncc(NCC3CCCOC3)cc2C1 (stereo not drawn) [Compound 2-86, 8-methyl-7-(3-(((tetrahydro-2H-pyran-3-yl)methyl)amino)-7,8-dihydro-1,6-naphthyridin-6(5H)-yl)-4H-pyrimido[1,2-b]pyridazin-4-one]
25 | 99 | 228 | Cc1cc2nccc(=O)n2nc1N1CCc2ncc(Nc3ccc(F)nc3)cc2C1 [Compound 2-87, 7-(3-((6-fluoropyridin-3-yl)amino)-7,8-dihydro-1,6-naphthyridin-6(5H)-yl)-8-methyl-4H-pyrimido[1,2-b]pyridazin-4-one]
26 | 106 | 173 | Cc1cc2nccc(=O)n2nc1N1CCc2ncc(Nc3cccnc3)cc2C1 [Compound 2-88, 8-methyl-7-(3-(pyridin-3-ylamino)-7,8-dihydro-1,6-naphthyridin-6(5H)-yl)-4H-pyrimido[1,2-b]pyridazin-4-one]
27 | 93 | 332 | Cc1cc2nccc(=O)n2nc1N1CCc2ncc(NCC3CC3)cc2C1 [Compound 2-89, 7-(3-((cyclopropylmethyl)amino)-7,8-dihydro-1,6-naphthyridin-6(5H)-yl)-8-methyl-4H-pyrimido[1,2-b]pyridazin-4-one]

Reference: patent US20250101041A1, “POSITIVE ALLOSTERIC MODULATORS OF THE MUSCARINIC ACETYLCHOLINE RECEPTOR M4” (Vanderbilt University, priority 2022, published 2025)
